Columns and labels:
Test in all cases: AUC of viability dose-response curve (% viability x log10 dose units); higher = less sensitive
Details in all cases: 48 h
[1] = tested on: P12-Ichikawa
How it was run: (§1)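 Leukemia cells adapted to each medium were seeded in 1536-well plates (500 or 1000 cells/well). They were dosed with library compounds in DMSO at 11 threefold doses, 47 μM to 0.79 nM, for 48 h at 37°C. CellTiter-Glo One luminescence was normalised per plate to DMSO and cell-free wells. Area under the curve was integrated by trapezoidal rule over log10 doses on a four-parameter log-logistic fit; curves exceeding full viability were scaled and curves failing quality control removed.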

[2] = tested on: NOMO1
How it was run: as §1

[3] = tested on: SEM cells
How it was run: as §1

[4] = RPMI 5 mM glucose + 10% dialyzed FBS

SMILES	AUC of viability dose-response curve ([1]; HPLM + 10% dialyzed FBS)	AUC of viability dose-response curve ([1]; RPMI 5 mM glucose + 10% FBS)	AUC of viability dose-response curve [1, 4]	AUC of viability dose-response curve ([2]; HPLM + 10% dialyzed FBS)	AUC of viability dose-response curve ([2]; RPMI 5 mM glucose + 10% FBS)	AUC of viability dose-response curve [2, 4]	AUC of viability dose-response curve ([3]; HPLM + 10% dialyzed FBS)	AUC of viability dose-response curve ([3]; RPMI 5 mM glucose + 10% FBS)	AUC of viability dose-response curve [3, 4]
O=C(Nc1ccncc1)C(=O)c1cn(Cc2ccc(Cl)cc2)c2ccccc12	281	275	288	306	315	311	249	237	247
Cc1n[nH]c(C)c1Cc1sc2c(c1C(=O)N1C[C@H](O)CO1)c(=O)n(C)c(=O)n2CC(C)C	416	410	417	456	476	468	366	408	444
O=C(O)CCc1ccc(NCc2cccc(Oc3ccccc3)c2)cc1	464	449	471	446	441	444	406	439	413
CN1\C(=C(O)/C2=C(C=C(Cl)S2)[S+]1([O-])=O)C(=O)NC3=NC=CC=C3	438	472	458	459	464	477	–	–	–
O=C(Nc1cccc2c(=O)cc(-c3nnn[nH]3)oc12)c1ccc(OCCCCc2ccccc2)cc1	424	416	389	433	384	404	378	371	392
CCCCC(F)(F)[C@@]1(O)CC[C@H]2[C@@H](CC(=O)[C@@H]2CCCCCCC(=O)O)O1	451	444	456	446	447	411	455	459	456
COC(=O)[C@@H]1CC2=CC(=O)CC[C@]2(C)[C@@]23O[C@@H]2C[C@@]2(C)[C@@H](CC[C@@]24CCC(=O)O4)[C@H]13	458	446	451	456	467	450	444	456	421
c1cc(N[C@@H]2CCNC2)nc(-c2cnc3ccc(-c4cn[nH]c4)cn23)c1	471	457	437	460	467	436	386	399	367
CNCCN(C)Cc1c[nH]nc1-c1ccc(O[C@H]2C[C@H](OCCC3CCOCC3)C2)cc1	457	472	468	457	461	465	436	397	431
CCC1=C2CN3C(=O)\C4=C(/C=C3/C2=NC5=CC=C(O)C=C15)[C@@](O)(CC)C(=O)OC4	109	102	105	226	211	218	158	137	140
CON(C)C(=O)N1\N=C(/S[C@]1(CCCN)C2=CC=CC=C2)C3=CC(=CC=C3F)F	–	–	–	–	–	–	130	103	105
O=C1N\N=C(\C[C@@H]2CCN(C2)C(=O)C3CC3)N1C4=CC=C(C=C4)C5=CC=C6OC=CC6=C5	400	376	405	448	397	394	–	–	–
CCN(CCO)CCCC(C)Nc1ccnc2cc(Cl)ccc12 (configuration not stated)	392	400	384	417	429	459	–	–	–
NC(=O)c1ncn([C@@H]2O[C@H](CO)[C@@H](O)[C@H]2O)c1N	467	447	455	468	469	465	443	372	458
C[C@]12CCC(=O)C(O)=C1CC[C@@H]1[C@@H]2CC[C@]2(C)C(=O)CC[C@@H]12	468	455	459	467	454	462	473	471	460
C=C1C(=O)O[C@@H]2[C@H]3O[C@]3(C)CC/C=C(\C)CC[C@@H]12	347	358	351	360	375	386	328	275	329
CNC(=O)c1ccccc1Sc1ccc2c(/C=C/c3ccccn3)n[nH]c2c1	390	386	409	425	430	418	407	389	395
COc1cc([C@@H]2c3cc4c(cc3[C@@H](O[C@@H]3O[C@@H]5CO[C@@H](C)O[C@H]5[C@H](O)[C@H]3O)[C@H]3COC(=O)[C@H]23)OCO4)cc(OC)c1O	268	239	244	345	314	311	–	–	–
COc1cc2nc(N3CCN(C(=O)c4ccco4)CC3)nc(N)c2cc1OC	–	–	–	411	384	392	332	383	377

SMILES	AUC of viability dose-response curve ([1]; HPLM + 10% dialyzed FBS)	AUC of viability dose-response curve ([1]; RPMI 5 mM glucose + 10% FBS)	AUC of viability dose-response curve [1, 4]	AUC of viability dose-response curve ([2]; HPLM + 10% dialyzed FBS)	AUC of viability dose-response curve ([2]; RPMI 5 mM glucose + 10% FBS)	AUC of viability dose-response curve [2, 4]	AUC of viability dose-response curve ([3]; HPLM + 10% dialyzed FBS)	AUC of viability dose-response curve ([3]; RPMI 5 mM glucose + 10% FBS)	AUC of viability dose-response curve [3, 4]
COCCNCCCn1c(C(=O)CF)c(-c2ccc(C)cc2)c2c(N)ncnc21	456	445	448	470	417	453	438	367	410
OC[C@H]1O[C@H](C[C@@H]1O)N2\C=C(\I)C(=O)NC2=O	435	462	472	456	470	446	452	454	386
COC(=O)Nc1nc2cc(Sc3ccccc3)ccc2[nH]1	377	376	382	377	391	387	377	365	371
N[C@@H](Cc1ccc(N(CCCl)CCCl)cc1)C(=O)O	410	374	387	400	422	415	377	355	362
O=C(O)C(=O)Nc1cccc(-c2nnn[nH]2)c1	455	477	470	463	457	452	422	451	462
NC(=O)[C@@H](CCC(F)(F)F)N(Cc1ccc(-c2ncon2)cc1F)[S+](=O)([O-])c1ccc(Cl)cc1	430	421	403	436	413	426	430	381	385
Cc1nc(C(=O)NCC(=O)O)c(O)c2ccc(Oc3ccccc3)cc12	454	455	466	462	442	466	459	454	470
CN1C(=O)\C(=C/C2=C1N=C(NC3CCOCC3)N=C2)OC4=C(F)C=C(F)C=C4	428	429	420	420	406	413	439	463	430
C[C@@H](Oc1ccc2[nH]nc(/C=C/c3cnn(CCO)c3)c2c1)c1c(Cl)cncc1Cl	386	385	374	401	379	381	–	–	–
Cc1ccccc1C(C(=O)NC1CCCC1)N(C(=O)Cn1cnc2ccccc21)c1cccc(F)c1 (configuration not stated)	446	439	446	–	–	–	429	464	469
CO[C@H]1C[C@H]2OC[C@@]2(OC(C)=O)[C@H]3[C@H](OC(=O)C4=CC=CC=C4)[C@]5(O)C[C@H](OC(=O)[C@H](O)[C@@H](NC(=O)OC(C)(C)C)C6=CC=CC=C6)/C(=C(/[C@@H](OC)C(=O)[C@]13C)C5(C)C)C	135	142	171	125	135	143	–	–	–
CN1CCN(CC1)C/2=N/C3=CC=CC=C3NC4=C2C=C(C)S4	465	458	458	–	–	–	467	454	473
OCCN1CCN(CCCN2c3ccccc3Sc3ccc(C(F)(F)F)cc32)CC1	403	402	418	411	420	454	–	–	–
O=C(O)c1nn(Cc2ccc(Cl)cc2Cl)c2ccccc12	423	412	379	–	–	–	387	400	375
CC(=O)O[C@@]12CO[C@@H]1C[C@H](O)[C@]3(C)[C@@H]2[C@H](OC(=O)C4=CC=CC=C4)[C@]5(O)C[C@H](O)/C(=C(/[C@@H](O)C3=O)C5(C)C)C	421	411	426	423	430	430	–	–	–
Cc1ccnc(N[S+](=O)([O-])c2ccc(NC(=O)Nc3ccc([S+](=O)([O-])Nc4nccc(C)n4)cc3)cc2)n1	274	279	270	–	–	–	236	180	210
O=C(/C=C/c1cccnc1)NCCCCC1CCN(C(=O)c2ccccc2)CC1	81	93.4	98	102	125	113	–	–	–
COc1ccc(-c2cc3c(C)nc(N)nc3n([C@H]3CC[C@H](OCCO)CC3)c2=O)cn1	351	299	304	286	322	278	–	–	–

Reference: the supplement of paper PMC11451515
